From publication PMC9732823, “Discovery of Dual Aβ/Tau Inhibitors and Evaluation of Their Therapeutic Effect on a Drosophila Model of Alzheimer’s Disease” (ACS Chemical Neuroscience, 2022)
Like-named read-outs stand apart in the source and are kept apart here.

Assays:
Aβ42 = target: T1, Aβ42 (Homo sapiens, UniProt P05067); experiment: Inhibition of Aβ42 aggregation in intact E. coli cells overexpressing Aβ42 (ThS fluorescence); type: cell-based, Escherichia coli
T1 construct: expressed in transfected cells; host or cells: Escherichia coli BL21 (DE3), pET28a
T1 sequence (P05067 672-713 limits assumed): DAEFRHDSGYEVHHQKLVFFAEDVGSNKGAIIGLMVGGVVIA
Source text: (§1) As it would have been labor-intensive and expensive to screen such a number of compounds in two separate antiaggregating studies using recombinant Aβ and Tau, we turned our attention to a simple model of protein aggregation, namely, the intact Escherichia coli (E. coli) cells overexpressing Aβ42 and Tau proteins.[28],[29] Building on the fact that inclusion bodies produced by overexpression of these proteins in E. coli mainly consist of fibrillar aggregates, this simple screening method uses bacteria as an in vivo reservoir for tracking the inhibition of amyloid-type protein aggregation in real time, using the amyloid dye thioflavin S (ThS). Of note, this screening has already been used for the evaluation of libraries of antiaggregating compounds.[28]−[38]
Escherichia coli competent cells BL21 (DE3) were transformed with the pET28a vector (Novagen, Inc., Madison, WI) carrying the DNA sequence of Aβ42. Because of the addition of the initiation codon ATG in front of both genes, the overexpressed peptide contains an additional methionine residue at its N terminus. For overnight culture preparation, an amount of 10 mL of M9 minimal medium containing 50 μg·mL^–1 kanamycin was inoculated with a colony of BL21 (DE3) bearing the plasmid to be expressed at 37 °C. For expression of the Aβ42 peptide, the required volume of overnight culture to obtain 1:500 dilution was added into fresh M9 minimal medium containing 50 μg·mL^–1 kanamycin and 250 μM ThS. The bacterial culture was grown at 37 °C and 250 rpm. When the cell density reached ABS600 nm = 0.6, an amount of 980 μL of culture was transferred into Eppendorf tubes of 1.5 mL with 10 μL of each compound to be tested in DMSO and 10 μL of isopropyl 1-thio-β-D-galactopyranoside (IPTG) at 100 mM. The final concentration of the drug was fixed at 10 μM. The samples were grown overnight at 37 °C and 1400 rpm using a thermomixer (Eppendorf, Hamburg, Germany). As the control of the amyloid presence (maximal amyloid presence), the same amount of DMSO without the drug was added to the sample. In parallel, noninduced samples (in the absence of IPTG) were also prepared and used as controls of the non-amyloid presence. In addition, the absorbance at 600 nm of the samples was checked to assess the potential intrinsic toxicity of the compounds and to confirm the correct bacterial growth.
(§2) ThS (T1892) and other chemical reagents were purchased from Sigma (St. Louis, MO). ThS stock solution (25 mM) was prepared in double-distilled water purified through a Milli-Q system (Millipore). For the fluorescence assay, the ThS spectra were measured on an AMINCO-Bowman series 2 luminescence spectrophotometer (Aminco-Bowman AB2, SLM Aminco, Rochester, NY) from 460 to 600 nm at 25 °C using an excitation wavelength of 440 nm and slit widths of 4 nm. The emission at 485 nm (fluorescence peak of ThS in the presence of amyloids) was recorded. To normalize the ThS fluorescence as a function of the bacterial concentration, ABS600nm was obtained using a Shimadzu UV-2401 PC UV–Vis spectrophotometer (Shimadzu, Japan). Note that the fluorescence normalization was carried out considering as 100% the ThS fluorescence of the bacterial cells expressing the peptide or protein in the absence of the drug and 0% the ThS fluorescence of the bacterial cells nonexpressing the peptide or protein.

Tau protein = target: T2, Tau protein (Homo sapiens, UniProt P10636); experiment: Inhibition of Tau aggregation in intact E. coli cells overexpressing Tau (ThS fluorescence); type: cell-based, Escherichia coli; settings: for inhibition at 10 µM: read-out: % inhibition Tau aggregation @ 10 μM, intact E. coli cells, compound 10 μM, mean ± SEM of four independent experiments; for % inhibition Tau aggregation @ 10 μM: intact E. coli cells, compound 10 μM, mean ± SEM of four independent experiments
T2 construct: expressed in transfected cells; host or cells: Escherichia coli BL21 (DE3) with pTARA and pRKT42
T2 sequence (P10636 1-441 isoform P10636-8): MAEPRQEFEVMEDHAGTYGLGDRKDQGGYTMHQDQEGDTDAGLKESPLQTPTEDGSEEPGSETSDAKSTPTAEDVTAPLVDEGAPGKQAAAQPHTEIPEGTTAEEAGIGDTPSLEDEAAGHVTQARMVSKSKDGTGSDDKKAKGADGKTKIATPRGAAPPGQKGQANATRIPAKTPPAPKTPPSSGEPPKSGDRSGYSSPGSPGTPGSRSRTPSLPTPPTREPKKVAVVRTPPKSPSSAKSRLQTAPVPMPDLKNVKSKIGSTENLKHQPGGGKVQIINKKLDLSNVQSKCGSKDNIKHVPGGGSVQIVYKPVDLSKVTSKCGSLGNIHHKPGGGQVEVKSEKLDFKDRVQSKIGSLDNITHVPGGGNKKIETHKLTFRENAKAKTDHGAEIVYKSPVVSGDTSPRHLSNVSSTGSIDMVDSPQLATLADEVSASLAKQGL
Source text: as §1
E. coli BL21 (DE3) competent cells were transformed with pTARA containing the RNA-polymerase gen of the T7 phage (T7RP) under the control of the promoter PBAD. E. coli BL21 (DE3) with pTARA competent cells were transformed with the pRKT42 vector encoding four repeats of Tau protein in two inserts. For overnight culture preparation, 10 mL of M9 medium containing 0.5% of glucose, 100 μg·mL^–1 ampicillin, and 12.5 μg·mL^–1 chloramphenicol were inoculated with a colony of BL21 (DE3) bearing the plasmids to be expressed at 37 °C. For expression of Tau protein, the required volume of overnight culture to obtain 1:500 dilution was added to fresh M9 minimal medium containing 0.5% of glucose, 50 μg·mL^–1 ampicillin, 12.5 μg·mL^–1 chloramphenicol, and 25 μM ThS. The bacterial culture was grown at 37 °C and 250 rpm. When the cell density reached ABS600 nm= 0.6, an amount of 980 μL of culture was transferred into Eppendorf tubes of 1.5 mL with 10 μL of each compound to be tested in DMSO and 10 μL of arabinose at 25%. The final concentration of the drug was fixed at 10 μM. The samples were grown overnight at 37 °C and 1400 rpm using a thermomixer (Eppendorf, Hamburg, Germany). As the control of maximal amyloid presence, the same amount of DMSO without the drug was added to the sample. In parallel, noninduced samples (in the absence of arabinose) were also prepared and used as controls for the amyloid absence. In addition, the absorbance at 600 nm of the samples was checked to assess the potential intrinsic toxicity of the compounds and to confirm the correct bacterial growth.
as §2

[1] = tested on: cerebellar granule neurons (CGNs); experiment: Neurotoxicity on primary cultures of cerebellar granule neurons (nuclei counting after Hoechst staining); settings: differentiated CGNs, 24 h, percentage of healthy nuclei on total nuclei, mean ± SEM of three experiments
[2] = read-out: % inhibition Aβ42 aggregation @ 10 μM, intact E. coli cells, compound 10 μM, mean ± SEM of four independent experiments

| SMILES | inhibition at 10 µM (Aβ42; [2]) [%] | inhibition at 10 µM (Tau protein) [%] | % survival neurotoxicity @ 10 μM [1] [%] | % inhibition Aβ42 aggregation @ 10 μM (Aβ42; intact E. coli cells, compound 10 μM, mean ± SEM of four independent experiments) [%] | % inhibition Tau aggregation @ 10 μM (Tau protein) [%] | % inhibition Tau aggregation @ 10 μM (Tau protein; 10 µM) [%] | inhibition at 10 µM (Aβ42; read-out: % inhibition Aβ42 aggregation @ 10 μM) [%] |
| --- | --- | --- | --- | --- | --- | --- | --- |
| O=C(O)CN1C(=O)S/C(=C\c2ccc(/C=C3\SC(=O)N(CC(=O)O)C3=O)cc2)C1=O [Compound 13, 2,2′-((5Z,5′Z)-(1,4-Phenylenebis(methanylylidene))bis(2,4-dioxothiazolidin-3-yl-5-ylidene))diacetic acid] | 16.1 ± 3.9 | 25.3 ± 4.2 | 82.3 ± 2.9 | – | – | – | – |
| CN(C)CCN1C(=O)S/C(=C\c2ccc(-c3ccc(/C=C4\SC(=O)N(CCN(C)C)C4=O)s3)s2)C1=O [Compound 24, (5Z,5′Z)-5,5′-([2,2′-Bithiophene]-5,5′-diylbis(methanylylidene))bis(3-(2-(dimethylamino)ethyl)thiazolidine-2,4-dione)] | 20.3 ± 4.8 | 17.3 ± 4.5 | 88.8 ± 2.3 | – | – | – | – |
| O=C1NC(=O)/C(=C/c2ccc(-c3ccc(/C=C4\SC(=O)NC4=O)cc3)cc2)S1 [Compound 2, (5Z,5′Z)-5,5′-([1,1′-Biphenyl]-4,4′-diylbis(methanylylidene))bis(thiazolidine-2,4-dione)] | 20.2 ± 2.1 | 16.5 ± 3.1 | 81.3 ± 6.5 | – | – | – | – |
| CCOC(=O)CN1C(=O)S/C(=C\c2ccc(Cc3ccc(/C=C4\SC(=O)N(CC(=O)OCC)C4=O)cc3)cc2)C1=O [Compound 9, Diethyl 2,2′-((5Z,5′Z)-((methylenebis(4,1-phenylene))bis(methanylylidene))bis(2,4-dioxothiazolidin-3-yl-5-ylidene))diacetate] | 14.5 ± 4.1 | 19.9 ± 3.6 | 88.7 ± 4.1 | – | – | – | – |
| CCOC(=O)CN1C(=O)S/C(=C\c2ccc3c(c2)C(C)(C)c2cc(/C=C4\SC(=O)N(CC(=O)OCC)C4=O)ccc2-3)C1=O [Compound 11, Diethyl 2,2′-((5Z,5′Z)-((9,9-dimethyl-9H-fluorene-2,7-diyl)bis(methanylylidene))bis(2,4-dioxothiazolidin-3-yl-5-ylidene))diacetate] | 17.5 ± 4.5 | 33.1 ± 4.5 | 85.8 ± 6.9 | – | – | – | – |
| O=C1NC(=O)/C(=C/c2ccc3[nH]c4ccc(/C=C5\SC(=O)NC5=O)cc4c3c2)S1 [Compound 4, (5Z,5′Z)-5,5′-((9H-Carbazole-3,6-diyl)bis(methanylylidene))bis(thiazolidine-2,4-dione)] | 24.7 ± 4.1 | 21.2 ± 2.6 | 73.4 ± 5.1 | – | – | – | – |
| CC1=CC2Cc3nc4cc(Cl)ccc4c(NCCCCCCCNc4c5c(nc6ccccc46)CCCC5)c3C(C1)C2 (stereo not drawn) [HUP7TH, reference compound] | – | – | – | 77.6 ± 1.5 | 69.5 ± 1.6 | – | – |
| O=C1NC(=O)/C(=C/c2ccc(-c3ccc(/C=C4\SC(=O)NC4=O)s3)s2)S1 [Compound 6, (5Z,5′Z)-5,5′-([2,2′-Bithiophene]-5,5′-diylbis(methanylylidene))bis(thiazolidine-2,4-dione)] | 42.4 ± 4.5 | < 20 | 89.9 ± 1.2 | – | – | 19.4 ± 3.9 | – |
| CN(C)CCN1C(=O)S/C(=C\c2ccc(-c3ccc(/C=C4\SC(=O)N(CCN(C)C)C4=O)cc3)cc2)C1=O [Compound 20, (5Z,5′Z)-5,5′-([1,1′-Biphenyl]-4,4′-diylbis(methanylylidene))bis(3-(2-(dimethylamino)ethyl)thiazolidine-2,4-dione)] | 26.4 ± 4.2 | 34.9 ± 1.9 | 91.1 ± 0.9 | – | – | – | – |
| O=C(O)CN1C(=O)S/C(=C\c2ccc(-c3ccc(/C=C4\SC(=O)N(CC(=O)O)C4=O)s3)s2)C1=O [Compound 18, 2,2′-((5Z,5′Z)-([2,2′-Bithiophene]-5,5′-diylbis(methanylylidene))bis(2,4-dioxothiazolidin-3-yl-5-ylidene))diacetic acid] | 65.6 ± 3.3 | < 20 | 90.9 ± 3.1 | – | – | 15.8 ± 4.7 | – |
| O=C1NC(=O)/C(=C/c2ccc(/C=C3\SC(=O)NC3=O)cc2)S1 [Compound 1, (5Z,5′Z)-5,5′-(1,4-Phenylenebis(methanylylidene))bis(thiazolidine-2,4-dione)] | 25.4 ± 1.9 | 19.4 ± 3.6 | 77.6 ± 6.1 | – | – | – | – |
| O=C(O)CN1C(=O)S/C(=C\c2ccc(-c3ccc(/C=C4\SC(=O)N(CC(=O)O)C4=O)cc3)cc2)C1=O [Compound 14, 2,2′-((5Z,5′Z)-([1,1′-Biphenyl]-4,4′-diylbis(methanylylidene))bis(2,4-dioxothiazolidin-3-yl-5-ylidene))diacetic acid] | 35.1 ± 1.9 | 27.1 ± 2.5 | 89.0 ± 2.2 | – | – | – | – |
| O=C1NC(=O)/C(=C/c2ccc(Cc3ccc(/C=C4\SC(=O)NC4=O)cc3)cc2)S1 [Compound 3, (5Z,5′Z)-5,5′-((Methylenebis(4,1-phenylene))bis(methanylylidene))bis(thiazolidine-2,4-dione)] | 12.9 ± 3.4 | 5.2 ± 2.7 | 62.4 ± 9.6 | – | – | – | – |
| CCOC(=O)CN1C(=O)S/C(=C\c2ccc(-c3ccc(/C=C4\SC(=O)N(CC(=O)OCC)C4=O)cc3)cc2)C1=O [Compound 8, Diethyl 2,2′-((5Z,5′Z)-([1,1′-biphenyl]-4,4′-diylbis(methanylylidene))bis(2,4-dioxothiazolidin-3-yl-5-ylidene))diacetate] | 14.3 ± 3.5 | 18.1 ± 3.2 | 87.2 ± 3.1 | – | – | – | – |
| O=C(O)CN1C(=O)S/C(=C\c2ccc(Cc3ccc(/C=C4\SC(=O)N(CC(=O)O)C4=O)cc3)cc2)C1=O [Compound 15, 2,2′-((5Z,5′Z)-((Methylenebis(4,1-phenylene))bis(methanylylidene))bis(2,4-dioxothiazolidin-3-yl-5-ylidene))diacetic acid] | 26.2 ± 1.9 | 3.8 ± 5.2 | 90.9 ± 1.5 | – | – | – | – |
| CC1=CC2Cc3nc4cc(Cl)ccc4c(N)c3C(C1)C2 (stereo not drawn) [Huprine Y, huprine Y, reference compound] | – | – | – | – | – | – | 4.6 ± 2.3 |
| O=C(O)c1cc(O)c2c(c1)C(=O)c1cccc(O)c1C2=O [Rhein, rhein, reference compound] | – | 39.2 ± 2.1 | – | – | – | – | – |
